The test system of the test is full thickness skin wounds. Kind of test: Acute Wound Model (Example 6). Type of test: in vivo, C57BL/6 mice. The settings on record: for Hyp content (μg/mg tissue weight), single animals / Hyp content, Mean (n = 4): wound tissue. The procedure:
6-8 weeks old male C57BL/6 mice were supplied by Changzhou Cvens Experimental Animal Co. Ltd. Prior to any experiments being conducted, mice were housed under standardized conditions (at a constant temperature or 22±2° C., with alternating 12 hour periods of light and darkness), and were fed on a standard mouse diet with water, for about a week. […] The hair on the back was shaved by a baby hair shaver and depilated with cream. […] EMS skin biopsy punch (Electron Microscopy Sciences, P.O. […] Full thickness skin was removed and the depth reached the fascia. The wounds left open without suture. […] The model group was given same amount of normal saline. Recombinant Human Epidermal Growth Factor (rhEGF, Shanghai Haohai Biological Technology Co. Ltd, Shanghai, China) was purchased and prepared according to the manufacturer's instructions. Lyophilized rhEGF powder (100000 IU/vial) was dissolved in 20 mL of normal saline to make a solution with a 5000 IU/mL concentration. […] MedChemExpress, MCE China, Shanghai, China) was obtained in a powder form and was dissolved in ultrapure water to obtain solutions with concentrations as described in Table 22 (L, M and H indicate low, medium and high montelukast doses, respectively) Wounds were wrapped up with transparent dresser after drug administration. Photographs were taken for each wound every other day from Day 0. Photos were scanned into a computer, and wound areas calculated using ImageJ image analysis software (National Institutes of Health, […]). The unhealed wound area was expressed as a percentage of the original wound area: At/A0×100%, where A0 and At refer to the initial area at Day 0 and the wound area at the date of measurement (time t), respectively. […] Half of the tissue was preserved in 10% neutral buffered formalin (Nanchang […] Experimental Equipment Co., Ltd., Nanchang, […] Provence, China), and analyzed by histological embedding in paraffin wax, sectioning and staining. HE and Masson stained paraffin sections were analyzed under an optical microscope. Skin regeneration, fibroblastic proliferation, collagen regeneration scores and inflammation scores were estimated. The rest of the samples were stored at -80° C. for further analysis. […] The supernatant was collected, and the extracted protein was used for ELISA analysis using standard ELISA test kits and an ELISA reader (SH-1000 Hitachi, Japan). […] (Beijing, China).

Where “and” joins values, the source holds several entries; their conditions need not be identical. Equal entries are not always repeated.

`CC(C)(O)c1ccccc1CC[C@@H](SCC1(CC(=O)O)CC1)c1cccc(/C=C/c2ccc3ccc(Cl)cc3n2)c1` [Mon, Montelukast sodium]: the “remaining wound area versus the initial wound” value (Day 2, Mon H 200 μg/wound) stood at 76.11 ± 6.40%; the “remaining wound area versus the initial wound” value (Day 2, Mon L 50 μg/wound once daily topically) was determined as 78.41 ± 9.51%; the “remaining wound area versus the initial wound” value (Day 2, Mon M 100 μg/wound) stood at 79.97 ± 11.79%; the “remaining wound area versus the initial wound” value (Day 4, Mon H 200 μg/wound) is 48.60 ± 6.49%; the “remaining wound area versus the initial wound” value (Day 4, Mon L 50 μg/wound) stood at 57.59 ± 11.54%; the “remaining wound area versus the initial wound” value (Day 4, Mon M 100 μg/wound) amounted to 55.09 ± 8.83%. Also, the “remaining wound area versus the initial wound” value was 29.13 ± 6.16% (Day 6, Mon H 200 μg/wound); 27.53 ± 3.76% (Day 6, Mon L 50 μg/wound); 28.51 ± 1.03% (Day 6, Mon M 100 μg/wound); 14.59 ± 3.04% (Day 8, Mon H 200 μg/wound); 14.08 ± 2.85% (Day 8, Mon L 50 μg/wound); 13.87 ± 3.51% (Day 8, Mon M 100 μg/wound). In addition, the “remaining wound area versus the initial wound” value was found to be 2.48 ± 3.43% (Day 12, Mon H 200 μg/wound); 1.15 ± 2.29% (Day 12, Mon L 50 μg/wound); 2.15 ± 3.73% (Day 12, Mon M 100 μg/wound). For the same compound, for the setting “Day 4, Mon H 200 μg/wound”, the “improvement rate (wound healing)” value is reported as “about 39%”. Besides, the “Hyp content (μg/mg tissue weight), single animals” value was 4.62 μg/mg tissue weight and 5.83 μg/mg tissue weight and 3.99 μg/mg tissue weight and 4.64 μg/mg tissue weight (Mon H 200 μg/wound); 4.65 μg/mg tissue weight and 4.41 μg/mg tissue weight and 6.71 μg/mg tissue weight and 6.05 μg/mg tissue weight (Mon L 50 μg/wound); 4.94 μg/mg tissue weight and 4.18 μg/mg tissue weight and 6.80 μg/mg tissue weight and 4.98 μg/mg tissue weight (Mon M 100 μg/wound). For the same compound, the “Hyp content, Mean (n = 4)” value by setting is: (Mon H 200 μg/wound) 4.77 μg/mg tissue weight; (Mon L 50 μg/wound) 5.46 μg/mg tissue weight; (Mon M 100 μg/wound) 5.23 μg/mg tissue weight.

The values above are taken from patent US11672792B2, “Topical formulations comprising montelukast and combinations with mussel adhesive proteins” (ENLITISA (SHANGHAI) PHARMACEUTICAL CO., LTD, priority 2017, dated 2023).
